Data taken from patent US10730919B2, “Peptides” (APITOPE INTERNATIONAL NV, priority 2013, dated 2020).

System: RNB12 specific T cells
Assay: Identification of apitopes in the RNB12 region (fresh vs fixed APCs, proliferation and IFN gamma)
Type: cell-based, human
Conditions: RNB12 specific TCL, fresh or fixed BM14 cells (FIG. 18)
Protocol: Peripheral blood monocytes (PBMC) from healthy donors or Graves' disease patients were isolated (Histopaque-1077, Sigma-Aldrich), and frozen in aliquots. At day 0, cells were thawed and 106 PBMCs/ml cultured with 20 ug/ml peptide in supplemented (10 mM HEPES, 50 U/ml Penicillin/Streptomycin and 4 mM L-Glutamine (Lonza)) RPMI 1640 (Lonza) with 5% AB serum (Sigma Aldrich) added in a 6 well plate (Greiner Bio-one) and incubated in 37 C and 5% CO2. After 7 days rhIL-2 (R&D Systems) is added to a final concentration of 20 U/ml. […]
At day 24 the cells were harvested, washed and 2×104 cultured in a 96 well round-bottom plate (Cellstar, Greiner Bio One) with […] irradiated autologous PBMCs and VAVY/BM14/MGAR human cell lines expressing human MHC cl II molecules (International Histocompatibility Working group, Seattle, US) in supplemented RPMI+5% AB serum in presence of different antigens (peptides, protein) in concentration from 5-50 ug/ml. […] After the plates been frozen the cells were harvested and read with β counter (Wallac 1450 Microbeta Trilux) to assess proliferation. […]
The supernatants from TCL cultures were assessed for IFN gamma content by use of the Human IFN-gamma Duoset kit, R&D Systems following the manufacturer's instruction. Optical density was measured at 450 nm (Tecan Benelux)

## KKKTLKLYNNGFTSVQGYKKK [RNB12-KKK]
  apitope status: confirmed to be apitopes
